# Data published in ChEMBL document CHEMBL1275440, “In vitro activity of telavancin against resistant gram-positive bacteria” (2008).
# Activity calls are given as the source filed them. The rule behind the calls is not given here.
# Experiments:
# Assay type in all cases: functional
# [1] = system: Streptococcus intermedius; assay: Antibacterial activity against Streptococcus intermedius clinical isolate assessed as susceptibility level by broth microdilution method
# [2] = system: Streptococcus constellatus; assay: Antibacterial activity against Streptococcus constellatus clinical isolate assessed as susceptibility level by broth microdilution method
# [3] = system: Streptococcus pneumoniae; assay: Antibacterial activity against multidrug-resistant Streptococcus pneumoniae clinical isolate assessed as susceptibility level by broth microdilution method
# [4] = system: Streptococcus pneumoniae; assay: Antibacterial activity against penicillin resistant Streptococcus pneumoniae clinical isolate by broth microdilution method
# [5] = system: Streptococcus mitis; assay: Antibacterial activity against Streptococcus mitis clinical isolate by broth microdilution method
# [6] = system: Streptococcus viridans; assay: Antibacterial activity against Streptococcus viridans clinical isolate assessed as susceptibility level by broth microdilution method
# [7] = system: Streptococcus viridans; assay: Antibacterial activity against Streptococcus viridans clinical isolate by broth microdilution method
# [8] = system: Streptococcus oralis; assay: Antibacterial activity against Streptococcus oralis clinical isolate by broth microdilution method
# [9] = system: Streptococcus pneumoniae; assay: Antibacterial activity against penicillin intermediate Streptococcus pneumoniae clinical isolate assessed as susceptibility level by broth microdilution method
# [10] = system: Streptococcus oralis; assay: Antibacterial activity against Streptococcus oralis clinical isolate assessed as susceptibility level by broth microdilution method
# [11] = system: Streptococcus pyogenes; assay: Antibacterial activity against Streptococcus pyogenes group A clinical isolate by broth microdilution method
# [12] = system: Streptococcus agalactiae; assay: Antibacterial activity against Streptococcus agalactiae group B clinical isolate by broth microdilution method
# [13] = system: Streptococcus pyogenes; assay: Antibacterial activity against Streptococcus pyogenes group A clinical isolate assessed as susceptibility level by broth microdilution method
# [14] = system: Streptococcus mitis; assay: Antibacterial activity against Streptococcus mitis clinical isolate assessed as susceptibility level by broth microdilution method
# [15] = system: Streptococcus intermedius; assay: Antibacterial activity against Streptococcus intermedius clinical isolate by broth microdilution method
# [16] = system: Streptococcus agalactiae; assay: Antibacterial activity against Streptococcus agalactiae group B clinical isolate assessed as susceptibility level by broth microdilution method
# [17] = system: Streptococcus pneumoniae; assay: Antibacterial activity against penicillin intermediate Streptococcus pneumoniae clinical isolate by broth microdilution method
# [18] = system: Streptococcus pneumoniae; assay: Antibacterial activity against multidrug-resistant Streptococcus pneumoniae clinical isolate by broth microdilution method
# [19] = system: Streptococcus pneumoniae; assay: Antibacterial activity against penicillin resistant Streptococcus pneumoniae clinical isolate assessed as susceptibility level by broth microdilution method
# [20] = system: Streptococcus constellatus; assay: Antibacterial activity against Streptococcus constellatus clinical isolate by broth microdilution method
# [21] = system: Staphylococcus capitis; assay: Antibacterial activity against methicillin resistant coagulase-negative Staphylococcus capitis clinical isolate by broth microdilution method
# [22] = system: Staphylococcus haemolyticus; assay: Antibacterial activity against methicillin resistant coagulase-negative Staphylococcus haemolyticus clinical isolate assessed as susceptibility level by broth microdilution method
# [23] = system: Staphylococcus epidermidis; assay: Antibacterial activity against methicillin resistant Staphylococcus epidermidis clinical isolate assessed as susceptibility level by broth microdilution method
# [24] = system: Staphylococcus aureus; assay: Antibacterial activity against methicillin resistant Staphylococcus aureus clinical isolate assessed as susceptibility level by broth microdilution method
# [25] = system: Staphylococcus saprophyticus; assay: Antibacterial activity against methicillin resistant coagulase-negative Staphylococcus saprophyticus clinical isolate by broth microdilution method
# [26] = system: Staphylococcus haemolyticus; assay: Antibacterial activity against methicillin resistant coagulase-negative Staphylococcus haemolyticus clinical isolate by broth microdilution method
# [27] = system: Staphylococcus auricularis; assay: Antibacterial activity against methicillin resistant coagulase-negative Staphylococcus auricularis clinical isolate assessed as susceptibility level by broth microdilution method
# [28] = system: Staphylococcus auricularis; assay: Antibacterial activity against methicillin resistant coagulase-negative Staphylococcus auricularis clinical isolate by broth microdilution method
# [29] = system: Staphylococcus capitis; assay: Antibacterial activity against methicillin resistant coagulase-negative Staphylococcus capitis clinical isolate assessed as susceptibility level by broth microdilution method
# [30] = system: Staphylococcus epidermidis; assay: Antibacterial activity against methicillin resistant Staphylococcus epidermidis clinical isolate by broth microdilution method
# [31] = system: Staphylococcus aureus; assay: Antibacterial activity against methicillin resistant Staphylococcus aureus clinical isolate by broth microdilution method
# [32] = Antibacterial activity against methicillin resistant coagulase-negative Staphylococcus hominis subsp. novobiosepticus clinical isolate assessed as susceptibility level by broth microdilution method
# [33] = Antibacterial activity against methicillin resistant coagulase-negative Staphylococcus hominis subsp. novobiosepticus clinical isolate by broth microdilution method
# [34] = system: Staphylococcus saprophyticus; assay: Antibacterial activity against methicillin resistant coagulase-negative Staphylococcus saprophyticus clinical isolate assessed as susceptibility level by broth microdilution method
structure (smiles),measurement,setting,value
CCC[C@@H]1C[C@@H](C(=O)N[C@@H]([C@H]2O[C@H](SC)[C@H](O)[C@@H](O)[C@H]2O)[C@H](C)Cl)N(C)C1 [CLINDAMYCIN],Activity,[1],88%
same,Activity,[2],88%
same,Activity,[3],73%
same,MIC50,[4],0.06 µg/mL
same,MIC90,[4],> 0.25 µg/mL
same,MIC,[5],≤ 0.03 µg/mL
same,MIC50,[5],inactive
same,MIC90,[5],inactive
same,Activity,[6],88%
same,MIC,[7],≤ 0.03 µg/mL
same,MIC50,[7],inactive
same,MIC90,[7],inactive
same,MIC,[8],≤ 0.03 µg/mL
same,MIC50,[8],inactive
same,MIC90,[8],inactive
same,Activity,[9],83%
same,Activity,[10],88%
same,MIC,[11],≤ 0.03 µg/mL
same,MIC50,[11],≤ 0.03 µg/mL
same,MIC90,[11],0.06 µg/mL
same,MIC50,[12],0.06 µg/mL
same,MIC90,[12],> 0.25 µg/mL
same,Activity,[13],98%
same,Activity,[14],88%
same,MIC,[15],≤ 0.03 µg/mL
same,MIC50,[15],inactive
same,MIC90,[15],inactive
same,Activity,[16],86%
same,MIC,[17],0.06 µg/mL
same,MIC50,[17],0.06 µg/mL
same,MIC90,[17],0.5 µg/mL
same,MIC50,[18],0.06 µg/mL
same,MIC90,[18],> 0.25 µg/mL
same,Activity,[19],76%
same,MIC,[20],≤ 0.03 µg/mL
same,MIC50,[20],inactive
same,MIC90,[20],inactive
CN(C)[C@@H]1C(O)=C(C(N)=O)C(=O)[C@@]2(O)C(O)=C3C(=O)c4c(O)cccc4[C@@](C)(O)[C@H]3C[C@@H]12 [TETRACYCLINE],Activity,[1],75%
same,Activity,[2],75%
same,Activity,[3],37%
same,MIC50,[4],> 8 µg/mL
same,MIC,[5],0.12 µg/mL
same,MIC50,[5],inactive
same,MIC90,[5],inactive
same,Activity,[6],75%
same,MIC,[7],0.12 µg/mL
same,MIC50,[7],inactive
same,MIC90,[7],inactive
same,MIC,[8],0.12 µg/mL
same,MIC50,[8],inactive
same,MIC90,[8],inactive
same,Activity,[9],67%
same,Activity,[10],75%
same,MIC50,[11],0.12 µg/mL
same,MIC90,[11],4 µg/mL
same,MIC50,[12],> 8 µg/mL
same,MIC90,[12],> 8 µg/mL
same,Activity,[13],89%
same,Activity,[14],75%
same,MIC,[15],0.12 µg/mL
same,MIC50,[15],inactive
same,MIC90,[15],inactive
same,Activity,[16],16%
same,MIC50,[17],0.12 µg/mL
same,MIC90,[17],> 8 µg/mL
same,MIC50,[18],> 8 µg/mL
same,Activity,[19],41%
same,MIC,[20],0.12 µg/mL
same,MIC50,[20],inactive
same,MIC90,[20],inactive
CC[C@H]1OC(=O)[C@H](C)C(=O)[C@H](C)[C@@H](O[C@@H]2O[C@H](C)C[C@H](N(C)C)[C@H]2O)[C@](C)(OC)C[C@@H](C)C(=O)[C@H](C)[C@H]2N(CCCCn3cnc(-c4cccnc4)c3)C(=O)O[C@]12C [TELITHROMYCIN],MIC50,[21],> 8 µg/mL
same,MIC90,[21],> 8 µg/mL
same,Activity,[22],29%
same,Activity,[23],43%
same,MIC50,[4],0.06 µg/mL
same,MIC90,[4],0.5 µg/mL
same,MIC,[5],0.004 µg/mL
same,MIC50,[5],inactive
same,MIC90,[5],inactive
same,Activity,[24],83%
same,MIC,[7],0.004 µg/mL
same,MIC50,[7],inactive
same,MIC90,[7],inactive
same,MIC50,[25],> 8 µg/mL
same,MIC90,[25],> 8 µg/mL
same,MIC,[8],0.004 µg/mL
same,MIC50,[8],inactive
same,MIC90,[8],inactive
same,Activity,[9],100%
same,MIC50,[26],> 8 µg/mL
same,MIC90,[26],> 8 µg/mL
same,Activity,[27],29%
same,MIC50,[28],> 8 µg/mL
same,MIC90,[28],> 8 µg/mL
same,Activity,[29],29%
same,MIC50,[11],0.015 µg/mL
same,MIC90,[11],0.015 µg/mL
same,MIC50,[12],0.015 µg/mL
same,MIC90,[12],0.25 µg/mL
same,MIC50,[30],0.5 µg/mL
same,MIC90,[30],> 8 µg/mL
same,Activity,[31],83%
same,MIC50,[31]; Staphylococcus aureus,0.25 µg/mL
same,MIC90,[31]; Staphylococcus aureus,16 µg/mL
same,Activity,[32],29%
same,MIC50,[33],> 8 µg/mL
same,MIC90,[33],> 8 µg/mL
same,MIC,[15],0.004 µg/mL
same,MIC50,[15],inactive
same,MIC90,[15],inactive
same,Activity,[34],29%
same,MIC50,[17],0.03 µg/mL
same,MIC90,[17],0.12 µg/mL
same,MIC50,[18],0.06 µg/mL
same,MIC90,[18],0.5 µg/mL
same,MIC,[20],0.004 µg/mL
same,MIC50,[20],inactive
same,MIC90,[20],inactive
